Assay results published in the supplement of paper PMC4862054.

Experiments:
Experiment in all cases: normalised viability (% of control), CellTiter-Blue; higher = more viable cells (about 100 = DMSO control)
MDA-MB-453 = conditions: 10 nM; incubation time: 72 h
Procedure: (§1)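 DSRT, CellTiter-Blue viability, 72 h incubation. Signal is normalised to DMSO and benzethonium chloride controls. Value is the normalised response at dose 3.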

MDA-MB-231 [1] = conditions: 100 nM; incubation time: 72 h
Procedure: as §1

CAL-85-1 [2] = conditions: 10 nM; incubation time: 72 h
Procedure: as §1

MFM-223 = conditions: 100 nM; incubation time: 72 h
Procedure: as §1

MDA-MB-436 = conditions: 100 nM; incubation time: 72 h
Procedure: as §1

HDQ-P1 = conditions: 10 nM; incubation time: 72 h
Procedure: as §1

HCC1599 = conditions: 100 nM; incubation time: 72 h
Procedure: as §1

CAL-120 [3] = conditions: 100 nM; incubation time: 72 h
Procedure: as §1

SK-BR-3 [4] = conditions: 100 nM; incubation time: 72 h
Procedure: as §1

BT-549 [5] = conditions: 100 nM; incubation time: 72 h
Procedure: as §1

HCC1143 [6] = conditions: 100 nM; incubation time: 72 h
Procedure: as §1

CAL-51 = conditions: 10 nM; incubation time: 72 h
Procedure: as §1

DU-4475 [7] = conditions: 10 nM; incubation time: 72 h
Procedure: as §1

Hs578T [8] = conditions: 100 nM; incubation time: 72 h
Procedure: as §1

MDA-MB-468 [9] = conditions: 100 nM; incubation time: 72 h
Procedure: as §1

CAL-148 [10] = conditions: 10 nM; incubation time: 72 h
Procedure: as §1

BT-474 [11] = conditions: 100 nM; incubation time: 72 h
Procedure: as §1

HCC1937 = conditions: 100 nM; incubation time: 72 h
Procedure: as §1

MDA-MB-231 [12] = conditions: incubation time: 72 h
Outline: (§2)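 Compound dissolved in 5 µl medium was pre-loaded into 384-well plates, and breast cancer cell lines in 20 µl suspension were seeded on top and incubated 72 h. After adding 2.5 µl CellTiter-Blue reagent for 2 h at 37 °C, fluorescence was read at 560/590 nm. Plates were normalised to vehicle (100) and a positive kill control (0), with Z'-factor quality control. Each value is normalised viability at a single listed concentration from the series.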

CAL-85-1 [13] = conditions: incubation time: 72 h
Outline: as §2

CAL-120 [14] = conditions: incubation time: 72 h
Outline: as §2

SK-BR-3 [15] = conditions: incubation time: 72 h
Outline: as §2

BT-549 [16] = conditions: incubation time: 72 h
Outline: as §2

HCC1143 [17] = conditions: incubation time: 72 h
Outline: as §2

DU-4475 [18] = conditions: incubation time: 72 h
Outline: as §2

Hs578T [19] = conditions: incubation time: 72 h
Outline: as §2

MDA-MB-468 [20] = conditions: incubation time: 72 h
Outline: as §2

CAL-148 [21] = conditions: incubation time: 72 h
Outline: as §2

BT-474 [22] = conditions: incubation time: 72 h
Outline: as §2

## Cn1cc(C2=C(c3cn(C4CCN(Cc5ccccn5)CC4)c4ccccc34)C(=O)NC2=O)c2ccccc21 [Enzastaurin]
MDA-MB-453
  normalised viability: 97.5%
MDA-MB-231 [1]
  normalised viability: 93.5%
CAL-85-1 [2]
  normalised viability: 96.9%
MFM-223
  normalised viability: 92.7%
MDA-MB-436
  normalised viability: 84.9%
HDQ-P1
  normalised viability: 123%
HCC1599
  normalised viability: 114%
CAL-120 [3]
  normalised viability: 91.6%
SK-BR-3 [4]
  normalised viability: 69.8%
BT-549 [5]
  normalised viability: 104%
HCC1143 [6]
  normalised viability: 98%
CAL-51
  normalised viability: 108%
DU-4475 [7]
  normalised viability: 123%
Hs578T [8]
  normalised viability: 68.7%
MDA-MB-468 [9]
  normalised viability: 105%
CAL-148 [10]
  normalised viability: 95.3%
BT-474 [11]
  normalised viability: 108%
HCC1937
  normalised viability: 86.2%
MDA-MB-231 [12]; 10 nM
  normalised viability: 88.2%
MDA-MB-231 [12]; 1000 nM
  normalised viability: 89.6%
MDA-MB-231 [12]; 10000 nM
  normalised viability: 71.1%
CAL-85-1 [13]; 3 nM
  normalised viability: 85.1%
CAL-85-1 [13]; 30 nM
  normalised viability: 93.4%
CAL-85-1 [13]; 100 nM
  normalised viability: 85.4%
CAL-120 [14]; 10 nM
  normalised viability: 89.6%
CAL-120 [14]; 1000 nM
  normalised viability: 95%
CAL-120 [14]; 10000 nM
  normalised viability: 65.9%
SK-BR-3 [15]; 10 nM
  normalised viability: 99.8%
SK-BR-3 [15]; 1000 nM
  normalised viability: 63.4%
SK-BR-3 [15]; 10000 nM
  normalised viability: 37%
BT-549 [16]; 10 nM
  normalised viability: 92.4%
BT-549 [16]; 1000 nM
  normalised viability: 68.9%
BT-549 [16]; 10000 nM
  normalised viability: 48.1%
HCC1143 [17]; 10 nM
  normalised viability: 76.8%
HCC1143 [17]; 1000 nM
  normalised viability: 64.8%
HCC1143 [17]; 10000 nM
  normalised viability: 61.5%
DU-4475 [18]; 3 nM
  normalised viability: 91.1%
DU-4475 [18]; 30 nM
  normalised viability: 103%
DU-4475 [18]; 100 nM
  normalised viability: 94.2%
Hs578T [19]; 10 nM
  normalised viability: 91.2%
Hs578T [19]; 1000 nM
  normalised viability: 68%
Hs578T [19]; 10000 nM
  normalised viability: 32.6%
MDA-MB-468 [20]; 10 nM
  normalised viability: 103%
MDA-MB-468 [20]; 1000 nM
  normalised viability: 107%
MDA-MB-468 [20]; 10000 nM
  normalised viability: 62.8%
CAL-148 [21]; 3 nM
  normalised viability: 78.6%
CAL-148 [21]; 30 nM
  normalised viability: 80.2%
CAL-148 [21]; 100 nM
  normalised viability: 78.5%
BT-474 [22]; 10 nM
  normalised viability: 104%
BT-474 [22]; 1000 nM
  normalised viability: 92.7%
BT-474 [22]; 10000 nM
  normalised viability: 67%

## CC(C)(C)NC(=O)[C@H]1CC[C@H]2[C@@H]3CC[C@H]4NC(=O)C=C[C@]4(C)[C@H]3CC[C@]12C [Finasteride]
MDA-MB-453
  normalised viability: 103%
MDA-MB-231 [1]
  normalised viability: 94.2%
CAL-85-1 [2]
  normalised viability: 97%
MFM-223
  normalised viability: 95.1%
MDA-MB-436
  normalised viability: 110%
HDQ-P1
  normalised viability: 106%
HCC1599
  normalised viability: 106%
CAL-120 [3]
  normalised viability: 108%
SK-BR-3 [4]
  normalised viability: 104%
BT-549 [5]
  normalised viability: 107%
HCC1143 [6]
  normalised viability: 107%
CAL-51
  normalised viability: 109%
DU-4475 [7]
  normalised viability: 107%
Hs578T [8]
  normalised viability: 105%
MDA-MB-468 [9]
  normalised viability: 103%
CAL-148 [10]
  normalised viability: 93.2%
BT-474 [11]
  normalised viability: 125%
HCC1937
  normalised viability: 91%
MDA-MB-231 [12]; 10 nM
  normalised viability: 98.2%
MDA-MB-231 [12]; 1000 nM
  normalised viability: 98.5%
MDA-MB-231 [12]; 10000 nM
  normalised viability: 122%
CAL-85-1 [13]; 3 nM
  normalised viability: 100%
CAL-85-1 [13]; 30 nM
  normalised viability: 91.7%
CAL-85-1 [13]; 100 nM
  normalised viability: 100%
CAL-120 [14]; 10 nM
  normalised viability: 108%
CAL-120 [14]; 1000 nM
  normalised viability: 108%
CAL-120 [14]; 10000 nM
  normalised viability: 116%
SK-BR-3 [15]; 10 nM
  normalised viability: 110%
SK-BR-3 [15]; 1000 nM
  normalised viability: 107%
SK-BR-3 [15]; 10000 nM
  normalised viability: 102%
BT-549 [16]; 10 nM
  normalised viability: 89.8%
BT-549 [16]; 1000 nM
  normalised viability: 99%
BT-549 [16]; 10000 nM
  normalised viability: 98.5%
HCC1143 [17]; 10 nM
  normalised viability: 102%
HCC1143 [17]; 1000 nM
  normalised viability: 96.8%
HCC1143 [17]; 10000 nM
  normalised viability: 106%
DU-4475 [18]; 3 nM
  normalised viability: 97.7%
DU-4475 [18]; 30 nM
  normalised viability: 106%
DU-4475 [18]; 100 nM
  normalised viability: 103%
Hs578T [19]; 10 nM
  normalised viability: 64.2%
Hs578T [19]; 1000 nM
  normalised viability: 108%
Hs578T [19]; 10000 nM
  normalised viability: 117%
MDA-MB-468 [20]; 10 nM
  normalised viability: 106%
MDA-MB-468 [20]; 1000 nM
  normalised viability: 99.2%
MDA-MB-468 [20]; 10000 nM
  normalised viability: 121%
CAL-148 [21]; 3 nM
  normalised viability: 95.1%
CAL-148 [21]; 30 nM
  normalised viability: 96.8%
CAL-148 [21]; 100 nM
  normalised viability: 102%
BT-474 [22]; 10 nM
  normalised viability: 125%
BT-474 [22]; 1000 nM
  normalised viability: 111%
BT-474 [22]; 10000 nM
  normalised viability: 125%
